Data on six compounds can be found in patent publication US4108994A, “5-Thiazole-methane-amines, and their use as antilipolytics” (Roussel Uclaf, priority 1975, dated 1978).

Structures can show the parent of a compound that is named as a salt.

Data set [1] has as its system plasmatic free fatty acids. Put plainly: Antilipolytic activity: determination of plasmatic free fatty acids in the blood. Type of data set: in vivo, Male rats of the Sprague Dawley SPF strain. To be noted: oral; for ED50: Rattus norvegicus, 1 h, starved rats, one hour after administration, read-out: DA50 (dose which reduced by 50% the level of free fatty acids as compared to controls); for reduction of the amount of plasmatic free fatty acids in the blood (in words): rats. As to the method: B. Antilipolytic Activity: Determination of Plasmatic Free Fatty Acids in the Blood
Male rats of the Sprague Dawley SPF strain weighing about 180 to 200 gm were starved for 24 hours and then were given the product orally. One hour after the oral administration, the animals were killed by carotidienne section and samples of the blood were obtained to determine the amount of free fatty acids. The extraction of the free fatty acids was made by the technique of Dole [J. Clin. Invest., Vol. 38 (1959), p. 1544-1554] as modified by Trout et al. [J. Lipid. Res., Vol. 1 (1960) p. 199-202]. The plasmatic extract freed of phospholipids was colorimetrically examined by the method of Anthonis [J. Lipid. Res., Vol. 6 (1965), p. 307-312]. Under these test conditions, the dose of the products which reduced by 50% the level of free fatty acids in the treated animals as compared to the controls (DA50) was determined.

Data set [2] is described as follows: acute toxicity, intraperitoneal, mice (DL50). The following applies: mouse, in vivo, ip, suspension in carboxymethylcellulose, observed one week, read-out: DL50 (average lethal dose). As to the method:
The acute toxicity was determined on groups of 10 mice weighing between 18 and 22 g and the product was administered intraperitoneally as a suspension in carboxymethylcellulose.

The next data set relates to glycemia. Put plainly: Hypoglycemiant activity: determination of glycemia. In kind it is in vivo, Male rats of the Sprague Dawley SPF strain. To be noted: oral, starved rats, one hour. As to the method: C. Hypoglycemiant Activity: Determination of Glycemia
Male rats of the Sprague Dawley SPF strain weighing between 180 and 200 gm were starved for 24 hours and were then given the test product orally. One hour after the administration, the animals were killed by carotidienne section and blood samples were taken to determine the glycemia. The seric extract was treated by the enzymatic (glucose-oxydase) method of Boehringer and the percent of reduction of glycemia as compared to the controls was determined for each dose of the product administered.

Turning to `Cc1ncc(CN)s1` [Example 1, hemisuccinate of 2-methyl-5-thiazole-methane-amine], in data set [1], the ED50 is ~0.8 mg/kg and the “reduction of the amount of plasmatic free fatty acids in the blood (in words)” value is “clear reduction”. For the same compound, the LD50 at 168 h in data set [2] is > 1000 mg/kg.
Consider `CCCc1ncc(CN)s1` [Example 5, hemisuccinate of 2-n-propyl-5-thiazole-methane-amine], for which the ED50 in data set [1] was ~8 mg/kg. For the same compound, in data set [1], the “reduction of the amount of plasmatic free fatty acids in the blood (in words)” value is on record as “clear reduction”. Besides, the entries for the “Percentage of reduction of the glycemia” value with glycemia (5 mg/kg), in the data set on glycemia (10 mg/kg) and in the data set on glycemia (20 mg/kg) were -12%, -14% and -27%, respectively. The LD50 at 168 h in data set [2] is ~650 mg/kg.
For `Cc1ncc(CN(CCO)CCO)s1` [Example 4, dinitrate of N,N-bis-(β-hydroxyethyl)-2-methyl-5-thiazole-methane-amine], in data set [2], the LD50 at 168 h is ~900 mg/kg.
As to `CNCc1cnc(C)s1` [Example 2, acetate of N,2-dimethyl-5-thiazole-methane-amine], in data set [1], the ED50 is ~4 mg/kg and the “reduction of the amount of plasmatic free fatty acids in the blood (in words)” value is “clear reduction”. Also, the LD50 at 168 h in data set [2] is ~700 mg/kg.
Turning to `Cc1ncc(CN2CCN(C)CC2)s1` [Example 7, 2-methyl-5-(4-methyl-piperazin-1-yl-methyl)-thiazole], in data set [2], the LD50 at 168 h is ~500 mg/kg.
Take `Cc1ncc(CN(C)C)s1` [Example 3, maleate of N,N,2-trimethyl-5-thiazole-methane-amine]: in data set [1], the ED50 was ~5 mg/kg and the “reduction of the amount of plasmatic free fatty acids in the blood (in words)” value is reported as “clear reduction”. Moreover, the LD50 at 168 h in data set [2] is ~450 mg/kg.
